Reference: US10954214B2 (Janssen Pharmaceutica NV, priority 2016, dated 2021)
pIC50: −log10 of the molar value.

Experiments:
[1] = target: full-length MALT1 protein (Strep-MALT1(1-824)-His) (Homo sapiens (Human), UniProt Q9UDY8); assay: MALT1 Biochemical Protease Assay (Ac-LRSR-AMC substrate); conditions: 10 nM FL MALT1, 200 μM Ac-LRSR-AMC, 4 h at RT; read-out: MALT1_Biochemical activity (Ac-LRSR-amc) IC50
How it was run: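 Full-length MALT1 pre-incubated with compounds (30 μM to 0.5 nM, 11 threefold steps) for 50 min at RT. After Ac-LRSR-AMC was added, the reaction ran 4 h at RT and AMC fluorescence was read. IC50 and Hill slope from curve fitting against no-enzyme and no-compound controls.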

[2] = test system: IL6 secretion by TMD8 ABC-DLBCL cells; assay: Human IL6 Mesoscale assay (TMD-8); assay type: cell-based; conditions: Homo sapiens, TMD8; TMD-8 cells, 24 h
How it was run: (§1)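 Compounds tested from 15 μM to 58.6 nM (twofold, 9 concentrations) on 100,000 cells per well over 24 h at 37° C, without beta-mercaptoethanol. Secreted cytokine in supernatant detected by MSD electrochemiluminescence; scaling used DMSO as maximum and RN486 as full inhibition.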

[3] = test system: IL10 secretion by TMD8 ABC-DLBCL cells; assay: Human IL10 Mesoscale assay (TMD-8); assay type: cell-based; conditions: Homo sapiens, TMD8; TMD-8 cells, 24 h
How it was run: as §1

Chain of full-length MALT1 protein (Strep-MALT1(1-824)-His) (Q9UDY8 whole entry): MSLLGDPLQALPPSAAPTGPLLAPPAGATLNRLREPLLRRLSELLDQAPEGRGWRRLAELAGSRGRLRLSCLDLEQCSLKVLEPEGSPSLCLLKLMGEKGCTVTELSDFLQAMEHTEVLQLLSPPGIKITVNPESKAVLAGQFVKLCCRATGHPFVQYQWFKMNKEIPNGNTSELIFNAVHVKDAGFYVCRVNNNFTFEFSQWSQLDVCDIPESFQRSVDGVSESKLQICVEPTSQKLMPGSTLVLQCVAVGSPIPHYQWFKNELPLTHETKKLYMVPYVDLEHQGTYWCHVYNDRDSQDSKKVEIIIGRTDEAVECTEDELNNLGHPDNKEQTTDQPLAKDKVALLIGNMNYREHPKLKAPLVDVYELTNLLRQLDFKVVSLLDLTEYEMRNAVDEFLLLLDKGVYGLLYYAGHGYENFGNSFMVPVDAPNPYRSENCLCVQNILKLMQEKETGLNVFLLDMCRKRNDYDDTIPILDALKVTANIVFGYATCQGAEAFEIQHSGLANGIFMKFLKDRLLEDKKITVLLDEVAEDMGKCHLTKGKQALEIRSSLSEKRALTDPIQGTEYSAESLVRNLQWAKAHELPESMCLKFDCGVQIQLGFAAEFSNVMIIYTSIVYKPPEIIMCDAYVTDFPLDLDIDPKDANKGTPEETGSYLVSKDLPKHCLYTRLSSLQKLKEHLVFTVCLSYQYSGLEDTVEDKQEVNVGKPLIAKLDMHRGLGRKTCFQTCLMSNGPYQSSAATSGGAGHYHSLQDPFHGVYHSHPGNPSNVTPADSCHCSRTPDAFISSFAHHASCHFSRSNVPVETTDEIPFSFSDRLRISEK

Row | SMILES | pIC50 [1] | pIC50 [2] | pIC50 [3]
1 | O=C(Nc1cnc(-n2nccn2)c(Cl)c1)c1cnn(-c2cccc3ncccc23)c1Br [Cpd 188, 5-Bromo-N-(5-chloro-6-(2H-1,2,3-triazol-2-yl)pyridin-3-yl)-1-(quinolin-5-yl)-1H-pyrazole-4-carboxamide] | 6.94 | 7.34 | 7.30
2 | Cn1ncc2cc(NC(=O)c3cnn(-c4cccc5ncccc45)c3C(F)(F)F)cnc21 [Cpd 225, N-(1-methyl-1H-pyrazolo[3,4-b]pyridin-5-yl)-1-(quinolin-5-yl)-5-(trifluoromethyl)-1H-pyrazole-4-carboxamide] | 5.91 | 6.39 | 6.10
3 | Cc1nc(-n2nccn2)c(Br)cc1NC(=O)c1cnn(-c2cccc3c(=O)[nH]ccc23)c1C(F)(F)F [Cpd 185, N-(5-bromo-2-methyl-6-(2H-1,2,3-triazol-2-yl)pyridin-3-yl)-1-(1-oxo-1,2-dihydroisoquinolin-5-yl)-5-(trifluoromethyl)-1H-pyrazole-4-carboxamide] | 7.74 | 6.73 | 6.79
4 | O=C(Nc1cnc(-n2nccn2)c(Cl)c1)c1cnn(-c2cccc3nccc(C(F)F)c23)c1C(F)(F)F [Cpd 396, N-(5-chloro-6-(2H-1,2,3-triazol-2-yl)pyridin-3-yl)-1-(4-(difluoromethyl)quinolin-5-yl)-5-(trifluoromethyl)-1H-pyrazole-4-carboxamide] | 6.35 | 7.29 | 7.41
5 | NC(=O)c1cc(-n2ncc(C(=O)Nc3cnc(-n4nccn4)c(Cl)c3)c2C(F)(F)F)c2ccccc2n1 [Cpd 386, 4-(4-((5-chloro-6-(2H-1,2,3-triazol-2-yl)pyridin-3-yl)carbamoyl)-5-(trifluoromethyl)-1H-pyrazol-1-yl)quinoline-2-carboxamide] | 6.97 | 7.25 | 7.68
6 | N#Cc1cc(NC(=O)c2cnn(-c3nccn4ccnc34)c2C(F)(F)F)cnc1-n1nccn1 [Cpd 103, N-(5-Cyano-6-(2H-1,2,3-triazol-2-yl)pyridin-3-yl)-1-(imidazo[1,2-a]pyrazin-8-yl)-5-(trifluoromethyl)-1H-pyrazole-4-carboxamide] | 5.82 | < 4.82 | < 4.82
7 | N#Cc1cc(NC(=O)c2cnn(-c3ccnc4ccncc34)c2C(F)(F)F)cnc1-n1nccn1 [Cpd 223, N-(5-cyano-6-(2H-1,2,3-triazol-2-yl)pyridin-3-yl)-1-(1,6-naphthyridin-4-yl)-5-(trifluoromethyl)-1H-pyrazole-4-carboxamide] | 5.77 | 6.12 | 5.93
8 | O=C1CO[C@@H](c2ncc(-n3ncc(C(=O)Nc4cnc(-n5nccn5)c(Cl)c4)c3C(F)(F)F)c3ccccc23)C1 (single isomer, unassigned) [Cpd 438, (*R)—N-(5-chloro-6-(2H-1,2,3-triazol-2-yl)pyridin-3-yl)-1-(1-(4-oxotetrahydrofuran-2-yl)isoquinolin-4-yl)-5-(trifluoromethyl)-1H-pyrazole-4-carboxamide] | 7.15 | 5.18 | 5.67
9 | N#Cc1cc(NC(=O)c2cnn(-c3nccc4occc34)c2C(F)(F)F)cnc1-n1nccn1 [Cpd 94, N-(5-cyano-6-(2H-1,2,3-triazol-2-yl)pyridin-3-yl)-1-(furo[3,2-c]pyridin-4-yl)-5-(trifluoromethyl)-1H-pyrazole-4-carboxamide] | 7.72 | 7.05 | 6.98
10 | Cc1nc(-n2cccn2)c(Cl)cc1NC(=O)c1cnn(-c2cccc3c(=O)[nH]ccc23)c1C(F)(F)F [Cpd 170, N-(5-chloro-2-methyl-6-(1H-pyrazol-1-yl)pyridin-3-yl)-1-(1-oxo-1,2-dihydroisoquinolin-5-yl)-5-(trifluoromethyl)-1H-pyrazole-4-carboxamide] | 6.87 | 6.47 | 6.95
11 | N#Cc1cc(NC(=O)c2cnn(-c3cccc4ncccc34)c2C(F)(F)F)ccc1C(=O)O [Cpd 237, 2-cyano-4-(1-(quinolin-5-yl)-5-(trifluoromethyl)-1H-pyrazole-4-carboxamido)benzoic acid] | 6.17 | 6.56 | 6.74

Further compounds by rising pIC50 [1], results first:

Row | pIC50 [1] | pIC50 [2] | pIC50 [3] | SMILES
12 | 4.58 | < 6.52 | < 6.52 | O=C(Nc1cncc(-n2nccn2)c1)c1cnn(-c2cccc3c(=O)[nH]ccc23)c1C(F)(F)F [Cpd 363, N-(5-(2H-1,2,3-triazol-2-yl)pyridin-3-yl)-1-(1-oxo-1,2-dihydroisoquinolin-5-yl)-5-(trifluoromethyl)-1H-pyrazole-4-carboxamide]
13 | 5.00 | < 4.82 | < 4.82 | CS(=O)(=O)c1cc(NC(=O)c2cnn(-c3cccc4ncccc34)c2C(F)(F)F)ccc1-n1ccnn1 [Cpd 213, N-(3-(methylsulfonyl)-4-(1H-1,2,3-triazol-1-yl)phenyl)-1-(quinolin-5-yl)-5-(trifluoromethyl)-1H-pyrazole-4-carboxamide]
14 | 5.24 | 4.91 | 5.68 | CS(=O)(=O)c1cc(NC(=O)c2cnn(-c3cccc4ncccc34)c2C(F)(F)F)ccc1-n1nccn1 [Cpd 215, N-(3-(methylsulfonyl)-4-(2H-1,2,3-triazol-2-yl)phenyl)-1-(quinolin-5-yl)-5-(trifluoromethyl)-1H-pyrazole-4-carboxamide]
15 | 5.78 | 6.24 | 6.08 | CN1CCN(c2ncc(NC(=O)c3cnn(-c4cccc5ncccc45)c3C(F)(F)F)cc2C#N)CC1 [Cpd 224, N-(5-cyano-6-(4-methylpiperazin-1-yl)pyridin-3-yl)-1-(quinolin-5-yl)-5-(trifluoromethyl)-1H-pyrazole-4-carboxamide]
16 | 5.95 | 6.04 | 6.48 | O=C(Nc1cnc2[nH]ncc2c1)c1cnn(-c2cccc3ncccc23)c1C(F)(F)F [Cpd 229, N-(1H-pyrazolo[3,4-b]pyridin-5-yl)-1-(quinolin-5-yl)-5-(trifluoromethyl)-1H-pyrazole-4-carboxamide]
17 | 6.05 | 6.14 | 6.07 | O=C(Nc1cnc(-n2nccn2)c(Cl)c1)c1cnn(-c2cccc3snnc23)c1C(F)(F)F [Cpd 231, 1-(benzo[d][1,2,3]thiadiazol-4-yl)-N-(5-chloro-6-(2H-1,2,3-triazol-2-yl)pyridin-3-yl)-5-(trifluoromethyl)-1H-pyrazole-4-carboxamide]
18 | 6.64 | 6.23 | 6.50 | COC(=O)c1ncc(NC(=O)c2cnn(-c3cccc4ncccc34)c2C(F)(F)F)cc1Cl [Cpd 258, methyl 3-chloro-5-(1-(quinolin-5-yl)-5-(trifluoromethyl)-1H-pyrazole-4-carboxamido)picolinate]
19 | 6.65 | 5.83 | 5.95 | O=C(Nc1ccnc(C(F)(F)F)c1)c1cnn(-c2ccc(F)c3nccn23)c1C(F)(F)F [Cpd 209, 1-(8-fluoroimidazo[1,2-a]pyridin-5-yl)-5-(trifluoromethyl)-N-(2-(trifluoromethyl)pyridin-4-yl)-1H-pyrazole-4-carboxamide]
20 | 6.72 | < 6.52 | < 6.52 | N#Cc1cc(NC(=O)c2cnn(-c3ncc(F)c4ccccc34)c2C(F)(F)F)cnc1-n1nccn1 [Cpd 263, N-(5-cyano-6-(2H-1,2,3-triazol-2-yl)pyridin-3-yl)-1-(4-fluoroisoquinolin-1-yl)-5-(trifluoromethyl)-1H-pyrazole-4-carboxamide]
21 | 6.75 | 5.37 | 6.00 | O=C1CO[C@H](c2ncc(-n3ncc(C(=O)Nc4cnc(-n5nccn5)c(Cl)c4)c3C(F)(F)F)c3ccccc23)C1 (single isomer, unassigned) [Cpd 439, (*S)—N-(5-chloro-6-(2H-1,2,3-triazol-2-yl)pyridin-3-yl)-1-(1-(4-oxotetrahydrofuran-2-yl)isoquinolin-4-yl)-5-(trifluoromethyl)-1H-pyrazole-4-carboxamide]
22 | 6.78 | < 5.82 | 6.92 | Cn1nc(-n2ncc(C(=O)Nc3cnc(-n4nccn4)c(C#N)c3)c2C(F)(F)F)c2cccnc21 [Cpd 265, N-(5-cyano-6-(2H-1,2,3-triazol-2-yl)pyridin-3-yl)-1-(1-methyl-1H-pyrazolo[3,4-b]pyridin-3-yl)-5-(trifluoromethyl)-1H-pyrazole-4-carboxamide]
23 | 6.86 | 5.46 | 5.93 | Cc1cn(-c2nc(C)c(NC(=O)c3cnn(-c4cccc5c(=O)[nH]ccc45)c3C(F)(F)F)cc2Cl)nn1 [Cpd 362, N-(5-chloro-2-methyl-6-(4-methyl-1H-1,2,3-triazol-1-yl)pyridin-3-yl)-1-(1-oxo-1,2-dihydroisoquinolin-5-yl)-5-(trifluoromethyl)-1H-pyrazole-4-carboxamide]
24 | 7.21 | < 4.82 | 5.10 | Cc1cc(NC(=O)c2cnn(-c3cccc4ncccc34)c2C(F)(F)F)cnc1-c1nnn(C)n1 [Cpd 305, N-(5-methyl-6-(2-methyl-2H-tetrazol-5-yl)pyridin-3-yl)-1-(quinolin-5-yl)-5-(trifluoromethyl)-1H-pyrazole-4-carboxamide]
25 | 7.27 | 7.02 | 7.03 | N#Cc1ncc(-n2ncc(C(=O)Nc3cnc(-n4nccn4)c(Cl)c3)c2C(F)(F)F)c2ccsc12 [Cpd 415, N-(5-chloro-6-(2H-1,2,3-triazol-2-yl)pyridin-3-yl)-1-(7-cyanothieno[2,3-c]pyridin-4-yl)-5-(trifluoromethyl)-1H-pyrazole-4-carboxamide]
